The subject of experiment [1] is vascular endothelial growth factor (VEGF). As to the kind of experiment: Brain VEGF gene expression in mice after intravenous injection. The settings on record: 20 mg/kg i.v., four hours, quantitative real time PCR normalized to 18s RNA. The class given is in vivo, Swiss Webster mice. As to the method:
The effect of compounds of the present invention on regulation of cytoprotective and neuroprotective gene expression in brain was evaluated. In one series of experiments, male Swiss Webster mice were administered by intravenous injection various compounds of the present invention. Animals treated by intravenous injection received a 6 ml/kg volume of either 5% Dextrose with an equimolar amount of Meglumine (vehicle control) or 20 mg/kg of a compound of the present invention in 5% dextrose with an equimolar amount of Meglumine Animals were euthanized four hours later and their brains placed in RNAlater (Ambion, Austin Tex.) for subsequent analysis. Tissues were homogenized in Trizol (Invitrogen, Carlsbad Calif.) using 5-mm steel beads in a Mixer Mill (Qiagen, Valencia Calif.). RNA was isolated from the Trizol solution and then further purified using RNeasy kit (Qiagen). cDNA was prepared from […] total RNA using Omniscript reverse transcriptase (Qiagen) and random hexamers. Quantitative real time PCR was performed in a 7900HT instrument (Applied Biosystems, Foster City Calif.) using TaqMan Assays-on-Demand (Applied Biosystems). Gene expression levels were normalized to that of 18s RNA.
(Quantitative PCR measures a nucleic acid by following its amplification.)

Experiment [2] relates to db/db mice, permanent occlusion of the MCA. Briefly: pMCAO in db/db mice: infarct volume. The experiment is classed as in vivo. The settings on record: 20 mg/kg i.v. immediately after MCA occlusion, 24 hours. How it is done: The effect of compounds of the present invention on infarct volume and edema associated with stroke was examined in an animal model of ischemic stroke. In these studies, mice were subjected to permanent occlusion of the middle cerebral artery. Mice were anesthetized intraperitoneally with avertin (0.5 mg/g). Mice were then immobilized in a rodent stereotaxic frame (Kopf Instruments, Tujunga Calif.) and maintained with avertin as needed. The surgical area of the head was swabbed with 70% ethanol and a lateral incision was made between the right orbit and the right ear. […] The distal course of the middle cerebral artery (MCA) was visible through the translucent skull. A small burr-hole craniotomy was performed with a micro-drill (Fine Science Tools, Foster City Calif.). The meninges/dura was removed and the MCA was coagulated by bipolar diathermy. The muscle and soft tissue were replaced and the incision closed with vet-bond adhesive (3M, St. Paul Minn.). These studies were performed in two different mouse models of pMCAO as described below.
To evaluate the effect of compounds of the present invention on infarct volume in an animal model of diabetes, db/db mice were subjected to ischemic stroke. Eight week-old male db/db mice were subjected to permanent occlusion of the MCA as described above. […] Changes in infarct volumes were determined as described above.

Experiment [3] deals with Wistar rats, transient occlusion of the MCA. As to the kind of experiment: Rat tMCAO, 28 days: lesion area, neuronal degeneration, brain tissue loss (Fluoro-Jade B). The experiment is classed as in vivo. The settings on record: 60 mg/kg p.o. at 1.5 and 24 hours after reperfusion then 30 mg/kg every other day, vs non-treated control. As to the method:
In another series of experiments, the long term effect of administration of compounds of the present invention on stroke and brain tissue damage associated with stroke was examined. For these studies, the effect of compounds of the present invention on lesion area, neuronal degeneration, and brain tissue loss following stroke was examined 28 days after transient MCA occlusion. Wistar rats (320 g) were subjected to transient occlusion of the MCA as described above. Compound F (60 mg/kg) was administered by oral gavage at 1.5 hours and 24 hours after reperfusion and subsequently every other day (using a dose of 30 mk/kg, p.o.) for 28 days. Twenty-eight days after transient MCA occlusion, animals were anesthetized with 3% isoflurane in oxygen and transcardially perfused with 100 ml of 0.9% saline solution (Hospira Inc, Lake Forest Ill.). Brains were removed and sliced into 6 coronal sections, 2 mm thick, and embedded in cryomold standard (Sakura Finetek, Ca) using O.C.T. embedded medium (Sakura Finetek, Ca). […]
Changes in lesion area were measured as follows. […] Lesion area was determined by measuring the infarcted (i.e., non-Fluoro-Jade B stained) areas of each brain section. […]
Changes in neuronal degeneration were measured as follows. […] Fluoro-Jade B positive cells observed in the digital photographs were quantified using Image Pro-Plus image analysis software (Media Cybernetics, Silver Spring Md.). Extent of neuronal degeneration was determined by comparing the total number of Fluoro-Jade B positive cells per mm^2 area of the treated group to the same area of the corresponding vehicle-control group. The distance of each coronal section from bregma was determined.
Changes in area of brain tissue loss were measured as follows. […] Area of brain tissue loss, associated with the ischemic insult, was measured by […]. A percentage value was then determined by dividing the area of brain tissue loss associated with the stroke by the total area of the contralateral hemisphere. […]

For the compound `COc1ccc(Oc2ccc3c(O)c(C(=O)NCC(=O)O)ncc3c2)cc1` [Compound F, {[4-Hydroxy-7-(4-methoxy-phenoxy)-isoquinoline-3-carbonyl]-amino}-acetic acid], in experiment [1], the “VEGF gene expression in brain” value stood at 1.5. For the same compound, in experiment [2], the “reduction in infarct volume” value stood at 52%. The lesion area entry in experiment [3] (FIG. 1) is recorded as “reduced”. In addition, in experiment [3] (FIG. 2), the “neuronal degeneration (Fluoro-Jade B positive cells)” value was “reduced”. Further, the brain tissue loss result in experiment [3] (FIG. 3) was “reduced”.
